Tested on: 885724-159-R-J1-PDC complex spheroid viability
Experiment: Anticancer human tumor 885724-159-R-J1-PDC patient-derived pancreatic adenocarcinoma cell line growth inhibition [POLQ]
Conditions: for IC50: curve of first compound; for viability, T/C: stronger effect = lower value
Method in brief: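 Patient-derived tumour cells were co-cultured with HUVEC and mesenchymal stem cells as multicellular spheroids at 37 °C. They were treated with POLQ inhibitors (novobiocin, ART-558, RP6685) alone or combined with other agents. Top concentrations were at or near clinical Cmax (otherwise 10 microM; SN-38 at 1 microM), decreasing in half-log steps.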
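Further: spheroids exposed to compounds for 7 days.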

For `Cn1ncnc1[C@H]1c2n[nH]c(=O)c3cc(F)cc(c23)N[C@@H]1c1ccc(F)cc1` + Nc1ccc(C#CCN(C(=O)Cc2ncc(C(F)(F)F)cc2C(F)(F)F)c2ccc(F)cc2)nn1, the IC50 (second compound 0.0316 µM) was > 100 nM, the IC50 (second compound 0.1 µM) was > 100 nM and the IC50 (second compound 0.316 µM) was > 100 nM. The IC50 (second compound 1 µM) was > 100 nM, the IC50 (second compound 3.16 µM) was > 100 nM and the IC50 (second compound 10 µM) was > 100 nM. For the same molecule, the viability, T/C (second compound 0.0316 µM, first compound 0.000316 µM) was 95.1%, the viability, T/C (second compound 0.0316 µM, first compound 0.001 µM) was 86.4% and the viability, T/C (second compound 0.0316 µM, first compound 0.00316 µM) was 90.3%. The viability, T/C (second compound 0.0316 µM, first compound 0.01 µM) was 90.7%, the viability, T/C (second compound 0.0316 µM, first compound 0.0316 µM) was 88.1% and the viability, T/C (second compound 0.0316 µM, first compound 0.1 µM) was 86.8%. The viability, T/C (second compound 0.1 µM, first compound 0.000316 µM) was 104%, the viability, T/C (second compound 0.1 µM, first compound 0.001 µM) was 86.5% and the viability, T/C (second compound 0.1 µM, first compound 0.00316 µM) was 90.1%. For the same molecule, the viability, T/C (second compound 0.1 µM, first compound 0.01 µM) was 88.1%, the viability, T/C (second compound 0.1 µM, first compound 0.0316 µM) was 93.1% and the viability, T/C (second compound 0.1 µM, first compound 0.1 µM) was 80.4%. For the same molecule, the viability, T/C (second compound 0.316 µM, first compound 0.000316 µM) was 99.9%, the viability, T/C (second compound 0.316 µM, first compound 0.001 µM) was 94.1% and the viability, T/C (second compound 0.316 µM, first compound 0.00316 µM) was 89.8%. The viability, T/C (second compound 0.316 µM, first compound 0.01 µM) was 84.8%, the viability, T/C (second compound 0.316 µM, first compound 0.0316 µM) was 87.4% and the viability, T/C (second compound 0.316 µM, first compound 0.1 µM) was 75.7%. For the same molecule, the viability, T/C (second compound 1 µM, first compound 0.000316 µM) was 99.2%, the viability, T/C (second compound 1 µM, first compound 0.001 µM) was 88% and the viability, T/C (second compound 1 µM, first compound 0.00316 µM) was 89.5%. The viability, T/C (second compound 1 µM, first compound 0.01 µM) was 95%, the viability, T/C (second compound 1 µM, first compound 0.0316 µM) was 92.2% and the viability, T/C (second compound 1 µM, first compound 0.1 µM) was 81.7%. For the same molecule, the viability, T/C (second compound 3.16 µM, first compound 0.000316 µM) was 97.8%, the viability, T/C (second compound 3.16 µM, first compound 0.001 µM) was 88% and the viability, T/C (second compound 3.16 µM, first compound 0.00316 µM) was 90%. It also gave a viability, T/C (second compound 3.16 µM, first compound 0.01 µM) of 87%, a viability, T/C (second compound 3.16 µM, first compound 0.0316 µM) of 83.9% and a viability, T/C (second compound 3.16 µM, first compound 0.1 µM) of 83.7%. For the same molecule, the viability, T/C (second compound 10 µM, first compound 0.000316 µM) was 105%, the viability, T/C (second compound 10 µM, first compound 0.001 µM) was 92.1% and the viability, T/C (second compound 10 µM, first compound 0.00316 µM) was 96.1%. For the same molecule, the viability, T/C (second compound 10 µM, first compound 0.01 µM) was 92.2%, the viability, T/C (second compound 10 µM, first compound 0.0316 µM) was 92.4% and the viability, T/C (second compound 10 µM, first compound 0.1 µM) was 84%.

Source: PubChem BioAssay AID1963832 (Molecular Pharmacology Branch, DTP, NCI, 2024)
